Molecular target: cAMP-specific 3',5'-cyclic phosphodiesterase 4D (Homo sapiens, UniProt Q08499)
Assay: Inhibitory Activity Assay
Experimental: Necessary amounts of test compounds were weighed, and 100% dimethylsulfoxide (DMSO) was added thereto to adjust the concentration to 10 mM. The solutions were stored in a freezer as stock solutions of each test compound. After being thawed when required, the solutions were diluted 20-fold with 100% DMSO to give a 500 μM concentration. Further, 10-fold serial dilutions were made with 100% DMSO to prepare test compounds of different concentrations. 2 μl of solutions containing one of each of the test compound were separately added into 1.2 ml tubes in which 23 μl of 20 mM Tris-HCl (pH 7.4) had been placed beforehand. 25 μl of a PDE4D enzyme solution diluted at an optimal ratio determined in (3) above were added on ice to each of the tubes, and 50 μl of a substrate solution containing 2 μM[3H] cAMP prepared by dilution with a 20 mM Tris-HCl (pH 7.4) containing 10 mM MgCl2 was added thereto. The final DMSO concentration in the reaction liquid was 2%. After mixing, the mixture was incubated for 10 minutes at 30° C. At the completion of the incubation, the tubes were placed in a bath containing boiling water for 3 minutes, and the reaction was stopped. After cooling the tubes in ice, 25 μl solution of 0.2 mg/ml snake venom was added thereto, and after mixing the mixture was incubated for 10 minutes at 30° C. […] 3H radioactivity (cpm) was measured using a TopCount.

Chain of cAMP-specific 3',5'-cyclic phosphodiesterase 4D (Q08499 whole entry): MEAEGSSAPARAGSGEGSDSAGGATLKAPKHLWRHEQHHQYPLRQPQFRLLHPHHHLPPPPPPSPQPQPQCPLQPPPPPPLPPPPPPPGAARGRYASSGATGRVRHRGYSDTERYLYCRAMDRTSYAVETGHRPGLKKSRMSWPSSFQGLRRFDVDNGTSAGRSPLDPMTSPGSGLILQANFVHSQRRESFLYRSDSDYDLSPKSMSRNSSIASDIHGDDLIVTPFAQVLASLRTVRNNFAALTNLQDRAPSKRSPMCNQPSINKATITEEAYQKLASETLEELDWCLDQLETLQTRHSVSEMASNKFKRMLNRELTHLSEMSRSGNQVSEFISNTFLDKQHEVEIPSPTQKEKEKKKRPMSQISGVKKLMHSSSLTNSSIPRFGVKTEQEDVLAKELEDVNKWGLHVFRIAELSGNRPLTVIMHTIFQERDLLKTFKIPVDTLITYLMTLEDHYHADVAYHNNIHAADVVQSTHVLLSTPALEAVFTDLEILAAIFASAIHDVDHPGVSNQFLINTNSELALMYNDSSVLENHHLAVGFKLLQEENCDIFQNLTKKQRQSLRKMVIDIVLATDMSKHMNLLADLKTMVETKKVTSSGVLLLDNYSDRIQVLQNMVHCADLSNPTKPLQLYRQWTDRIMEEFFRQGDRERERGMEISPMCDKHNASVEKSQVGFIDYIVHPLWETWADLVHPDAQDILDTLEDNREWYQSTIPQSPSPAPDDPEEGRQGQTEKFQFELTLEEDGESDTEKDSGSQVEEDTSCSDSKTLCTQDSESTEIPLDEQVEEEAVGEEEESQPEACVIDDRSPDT

## COc1ccc(-c2nc(CCC(=O)c3ncccc3OC)co2)cc1OCC1CC1 [USRE46792, 126]
  IC50: < 50 nM

Reference: BindingDB's records for patent USRE46792 (Otsuka Pharmaceutical, 2018)
